Experimental data: US4349547A, “Suppressing obesity and over-secretion of insulin with 2-(α-hydroxy-m-trifluoromethylbenzyl)azetidine” (priority 1979, dated 1982)
Structures can show the parent of a compound that is named as a salt. Where two headings read alike, the source gives them in different places.

Experiments:
[1] = Anorectic effect in mice; format: in vivo, mouse (ICR); conditions: 50 mg/kg oral gavage, control = 100
Procedure: (a) Anorectic effect in mice
ICR mice, male and aged seven weeks (in groups of six individuals), which had been acclimatized to 6-hour/day feeding (CE-2 powder, commercial product of Clea Japan Ltd., Tokyo, Japan) for seven days were administered a dosage, by oral gavage, with a solution of 50 mg/kg of each test compound in 5% gum arabic at 0.5 hour before feeding on the eighth day, and the food intakes were compared with those of control mice given 5% gum arabic only. Each figure in the table is the percent food intake, with the corresponding figure for the control being 100.

[2] = Anorectic effect in rats; format: in vivo, rat (Sprague-Dawley); conditions: Rattus norvegicus, oral gavage, 50% inhibition of food intake
Procedure: (b) Anorectic effect in rats
Sprague-Dawley (SD) rats, male and aged seven weeks, fasted for 24 hours (in groups of six individuals) were dosed, by oral gavage, with a solution of each test compound in 5% gum arabic, and feeding (CE-2 powder) was started at 0.5 hour after administration. The dose (ED50) which caused a 50% inhibition of food intake as compared with the control dosed with 5% gum arabic was determined.

[3] = tested on: biosynthesis of fatty acid; experiment: Suppression of biosynthesis of fatty acid (incorporation of glucose-U-14C into liver and epididymal adipose tissue lipids); format: in vivo, rat (SD); conditions: Rattus norvegicus, 1 h, oral, 50% inhibition of glucose-U-14C incorporation, 60 minutes after glucose
Procedure: (c) Suppression of biosynthesis of fatty acid
Male SD rats fasted for 24 hours, were orally dosed with erythro-(I) hydrochloride and after a lapse of 30 minutes, glucose-U-^14 C (140 μCi/2 g/kg) was orally administered. The animals were sacrificed after 60 minutes and the amounts of incorporation of glucose-U-^14 C into the liver and the epididymal adipose tissue lipids were determined to calculate the dose (ED50) which caused a 50% inhibition of glucose-U-^14 C incorporation, as compared to control rats, which had fasted, had not been so dosed, and had been orally administered with glucose-U-^14 C (140μCi/2 g/kg).

[4] = Estimation of LD50 in mice; design: species or system mouse (ICR); conditions: mouse, in vivo; oral; kept for seven days; Probit analysis
Procedure: (e) Estimation of LD50 in mice
ICR mice, male and aged nine weeks, were used without fasting. The mice (in groups of six individuals) were orally dosed with a solution of erythro-(I) hydrochloride (333, 500 and 750 mg/kg) or erythro-(VIII) hydrochloride (750, 1100 and 1700 mg/kg) in 5% gum arabic and kept for seven days. LD50 was calculated using the Probit analysis.

[5] = tested on: insulin secretion; experiment: Suppression of insulin secretion (insulin area after glucose loading); format: in vivo, rat (Fatty rats); conditions: 50 mg/kg oral; glucose 3 g/kg after 30 minutes; blood at 30, 60 and 120 minutes; control 739
Procedure: (d) Suppression of insulin secretion
Fatty rats, female and aged 14 weeks, were used after fasting for 24 hours. The rats (in groups of five individuals) were orally dosed with a solution of 50 mg/kg of erythro-(I) hydrochloride in 5% gum arabic and, after 30 minutes, glucose (3 g/kg) was orally administered. At 30, 60 and 120 minutes after glucose loading, blood was withdrawn. The plasma samples were assayed for insulin and the insulin area was calculated.

[6] = Antiobesity action (general statement); format: in vivo; conditions: compared with (VII)
[7] = Toxicity (general statement); conditions: in vivo
[8] = in vivo
[9] = 0.5 hour, read-out: ED50 0.5 hour after administration
[10] = 1 hour, read-out: ED50 1 hour after administration
[11] = 2 hours, read-out: ED50 2 hours after administration

Compound | Food intake (%) 0.5 hour after administration [1] [%] | Food intake (%) 1 hour after administration [1] [%] | Food intake (%) 2 hours after administration [1] [%] | ED50 [2, 9] [mg/kg] | ED50 [2, 10] [mg/kg] | ED50 [2, 11] [mg/kg] | ED50 ([3]; epididymal adipose tissue lipids, read-out: Epididymal adipose tissue: ED50) [mg/kg] | ED50 ([3]; liver lipids, read-out: Liver: ED50) [mg/kg] | LD50 at 168 h [4] [mg/kg] | Insulin area [5] [μU/ml.hr] | antiobesity action [6] | toxicity [7] | absorbability on oral administration [8]
O[C@@H](c1ccccc1)[C@@H]1CCN1 (relative stereo) [Threo-(VII) hydrochloride, 2-(α-hydroxybenzyl)azetidine, reference compound] | 70.0 | 89.3 | 98.3 | – | – | – | – | – | – | – | – | – | –
O[C@@H](c1cccc(C(F)(F)F)c1)[C@@H]1CCN1 (relative stereo) [Threo-(I) hydrochloride, Threo-2-(α-hydroxy-m-trifluoromethylbenzyl)azetidine hydrochloride] | 55.0 | 72.0 | 84.8 | – | – | – | – | – | – | – | – | – | –
O[C@@H](c1cccc(C(F)(F)F)c1)[C@H]1CCN1 (relative stereo) [Erythro-(I) hydrochloride, erythro-2-(α-hydroxy-m-trifluoromethylbenzyl)azetidine hydrochloride] | 44.0 | 50.6 | 67.0 | 20 | 20 | 25 | 20 | 20 | 499 | 51 | – | – | –
O[C@@H](c1ccccc1)[C@H]1CCN1 (relative stereo) [Erythro-(VII) hydrochloride, 2-(α-hydroxybenzyl)azetidine, reference compound] | – | – | – | 35 | 50 | 300 | – | – | 902 | – | – | – | –
OC(c1cccc(C(F)(F)F)c1)C1CCN1 (stereo not drawn) [Compound (I), 2-(α-hydroxy-m-trifluoromethylbenzyl)azetidine] | – | – | – | – | – | – | – | – | – | – | very potent and long lasting antiobesity action, surpassing the action of (VII) | low toxicity | good absorbability on oral administration
